One assay deals with Escherichia coli. The assay can be described thus: Antibacterial activity against Escherichia coli at 0.05 mg by agar diffusion method. The assay is classed as functional. The conditions noted are these: for zone of inhibition at 50 µg/disc: read-out: DIZ. On the technique in general: In agar diffusion tests the substance spreads into inoculated agar from a disc or well.
The subject of a further assay is Priestia megaterium. As to the kind of experiment: Antibacterial activity against Bacillus megaterium at 0.05 mg by agar diffusion method. The assay is classed as functional. The conditions noted are these: for zone of inhibition at 50 µg/disc: read-out: DIZ.
For another assay, the system named is Microbotryum violaceum. The assay can be described thus: Antifungal activity against Microbotryum violaceum at 0.05 mg by agar diffusion method. The assay is classed as functional. As to conditions: for zone of inhibition at 50 µg/disc: read-out: DIZ.
Another assay concerns Zymoseptoria tritici. As to the kind of experiment: Antifungal activity against Septoria tritici at 0.05 mg by agar diffusion method. As to conditions: for zone of inhibition at 50 µg/disc: read-out: DIZ. The assay is classed as functional.
In the next assay the test system is A549. As to the kind of experiment: Growth inhibition of human A549 cells by MTT assay. The assay is classed as functional, cell-based.
The test system of another assay is MG-63. As to the kind of experiment: Growth inhibition of human MG63 cells by MTT assay. The assay is classed as functional, cell-based. For orientation: Tetrazolium assays rely on reduction of a dye to a coloured formazan, in cell work by metabolically active cells.

Broadly, the IC50 is the midpoint of a concentration-inhibition curve. Read a low IC50 as greater potency in that assay.

The source made the active and inactive calls. The calls are words filed in the database; no cut-off is given here.

In the case of `C=C1/C=C/[C@H](OC(C)=O)[C@@]2(C)[C@@H](OC(C)=O)[C@@H](OC(=O)CC(C)C)[C@@H](OC(C)=O)[C@]3(CO3)[C@@H]2[C@H](OC(C)=O)[C@]2(O)[C@@H](C)C(=O)O[C@H]2[C@H]1Cl`, the “diameter of the inhibition zone (DIZ)” value with Escherichia coli, in the assay on Priestia megaterium, in the assay on Microbotryum violaceum and with Zymoseptoria tritici was “inactive” each time.

For `C=C1/C=C/[C@H](OC(C)=O)[C@@]2(C)[C@@H](OC(C)=O)C[C@@H](OC(C)=O)[C@]3(CO3)[C@@H]2[C@H](OC(C)=O)[C@]2(O)[C@@H](C)C(=O)O[C@H]2[C@H]1Cl` [GEMMACOLIDE H], the half-maximal inhibitory concentration (IC50) in the assay on A549 amounted to 47.3 µM; with MG-63, 54 µM. Also, the “diameter of the inhibition zone (DIZ)” value in the assay on Escherichia coli, in the assay on Priestia megaterium, in the assay on Microbotryum violaceum and in the assay with Zymoseptoria tritici was “inactive” throughout.

In the case of `C=C1/C=C/[C@H](OC(C)=O)[C@@]2(C)[C@@H](OC(C)=O)C[C@@H](OC(=O)CC(C)C)[C@]3(CO3)[C@@H]2[C@H](OC(C)=O)[C@]2(O)[C@@H](C)C(=O)O[C@H]2[C@H]1Cl` [GEMMACOLIDE I], the IC50 amounted to 20.6 µM with A549 and 25 µM in the assay on MG-63. The “diameter of the inhibition zone (DIZ)” value in the assay with Escherichia coli, in the assay on Priestia megaterium, in the assay with Microbotryum violaceum and in the assay on Zymoseptoria tritici was “inactive” throughout.

Consider `COc1cccc2c1C(=O)c1c(O)c3c(c(O)c1C2=O)C[C@@](O)(C(=O)CO)C[C@@H]3O[C@H]1C[C@H](N)[C@H](O)[C@H](C)O1` [DOXORUBICIN], for which the concentration for half-maximal inhibition (IC50) in the assay with A549 and with MG-63 was 2.8 µM each time.

With `C=C1/C=C/[C@H](OC(C)=O)[C@@]2(C)[C@@H](OC(C)=O)[C@@H](OC(C)=O)[C@@H](OC(=O)CC(C)C)[C@]3(CO3)[C@@H]2[C@H](OC(C)=O)[C@]2(O)[C@@H](C)C(=O)O[C@H]2[C@H]1Cl` [GEMMACOLIDE J], the IC50 in the assay with A549 is less than 1.4 µM; with MG-63, 79.8 µM. In the assay with Priestia megaterium, the zone of inhibition at 50 µg/disc turned out to be 16 mm.

On to `CN[C@@H]1[C@H](O[C@H]2[C@H](O[C@H]3[C@H](O)[C@@H](O)[C@H](N=C(N)N)[C@@H](O)[C@@H]3N=C(N)N)O[C@@H](C)[C@]2(O)C=O)O[C@@H](CO)[C@H](O)[C@H]1O` [STREPTOMYCIN], for which the zone of inhibition at 50 µg/disc amounted to 18 mm in the assay with Escherichia coli, 11 mm in the assay on Priestia megaterium, 16 mm in the assay with Microbotryum violaceum and 11 mm with Zymoseptoria tritici.

Regarding `CC(=O)N1CCN(c2ccc(OCC3COC(Cn4ccnc4)(c4ccc(Cl)cc4Cl)O3)cc2)CC1` (stereo not drawn) [KETOCONAZOLE], the zone of inhibition at 50 µg/disc was 18 mm in the assay with Escherichia coli, 18 mm in the assay with Priestia megaterium, 30 mm in the assay with Microbotryum violaceum and 25 mm in the assay on Zymoseptoria tritici.

For `C=C1/C=C/[C@H](OC(C)=O)[C@@]2(C)[C@@H](OC(C)=O)[C@@H](OC(C)=O)[C@@H](OC(C)=O)[C@]3(CO3)[C@@H]2[C@H](OC(C)=O)[C@]2(O)[C@@H](C)C(=O)O[C@H]2[C@H]1Cl` [GEMMACOLIDE G], the IC50 stood at 8.4 µM in the assay with A549 and 38.4 µM in the assay on MG-63. The “diameter of the inhibition zone (DIZ)” value with Escherichia coli, in the assay with Priestia megaterium, in the assay on Microbotryum violaceum and in the assay on Zymoseptoria tritici was “inactive” each time.

In the case of `C=C1/C=C/[C@H](OC(C)=O)[C@@]2(C)[C@@H](OC(C)=O)CC[C@]3(CO3)[C@@H]2[C@H](OC(C)=O)[C@]2(O)[C@@H](C)C(=O)O[C@H]2[C@H]1Cl`, the “diameter of the inhibition zone (DIZ)” value with Escherichia coli, with Priestia megaterium, with Microbotryum violaceum and in the assay with Zymoseptoria tritici was “inactive” each time.

For `CC1(C)S[C@@H]2[C@H](NC(=O)Cc3ccccc3)C(=O)N2[C@H]1C(=O)O` [PENICILLIN G], the zone of inhibition at 50 µg/disc with Escherichia coli stood at 8 mm; in the assay on Priestia megaterium, 26 mm; in the assay with Microbotryum violaceum, 14 mm; in the assay on Zymoseptoria tritici, 12 mm.

These data come from ChEMBL document CHEMBL1811769, “Bioactive 11,20-epoxy-3,5(16)-diene briarane diterpenoids from the South China Sea gorgonian Dichotella gemmacea” (J Nat Prod, 2011).
